Paper PMC7734625, “Stabilization Strategies for Linear Minigastrin Analogues: Further Improvements via the Inclusion of Proline into the Peptide Sequence” (Journal of Medicinal Chemistry, 2020)
Where two headings read alike, the source gives them in different places. Non-standard residues stand in square brackets, D forms with d. Residues, ends and D or L forms follow the SMILES beside them. *: point of attachment. DOTA = O=C(O)CN1CCN(CC(=O)O)CCN(CC(=O)*)CCN(CC(=O)O)CC1; 1Nal = N[C@@H](Cc1cccc2ccccc12)C(=O)O; NMeNle = CCCC[C@H](NC)C(=O)O

Experiment: biodistribution in A431-CCK2R/A431-mock xenografted BALB/c nude mice
Format: in vivo
Details: female, athymic BALB/c nude, mouse, iv, total radioactivity; for tissue to tissue ratio at 4 h / tissue uptake at 4 h: 4 h p.i.; for tissue uptake at 12 h / tissue to tissue ratio at 12 h: 12 h p.i.
[1] = A431-CCK2R xenograft tumor, 20 pmol, 20 pmol, read-out: tumor uptake in A431-CCK2R xenografts
[2] = A431-mock xenograft tumor, 20 pmol, 20 pmol, read-out: uptake in A431-mock xenografts
[3] = blood, 20 pmol, 20 pmol, read-out: uptake in blood
[4] = heart, 20 pmol, 20 pmol, read-out: uptake in heart
[5] = intestine, 20 pmol, 20 pmol, read-out: uptake in intestine
[6] = kidney, 20 pmol, 20 pmol, read-out: uptake in kidney
[7] = liver, 20 pmol, 20 pmol, read-out: uptake in liver
[8] = lung, 20 pmol, 20 pmol, read-out: uptake in lung
[9] = muscle, 20 pmol, 20 pmol, read-out: uptake in muscle
[10] = pancreas, 20 pmol, 20 pmol, read-out: uptake in pancreas
[11] = spleen, 20 pmol, 20 pmol, read-out: uptake in spleen
[12] = stomach, 20 pmol, 20 pmol, read-out: uptake in stomach

CCCC[C@@H](C(=O)N[C@@H](CC(=O)O)C(=O)N[C@@H](Cc1cccc2ccccc12)C(N)=O)N(C)C(=O)[C@H](Cc1c[nH]c2ccccc12)NC(=O)CNC(=O)[C@H](Cc1ccc(O)cc1)NC(=O)[C@@H]1CCCN1C(=O)[C@@H](CCC(=O)O)NC(=O)CN1CCN(CC(=O)O)CCN(CC(=O)O)CCN(CC(=O)O)CC1 [[^177Lu]Lu-1, metal not drawn] ({DOTA}-[dE]PYGW[NMeNle]D[1Nal]-NH2)
tissue to tissue ratio at 4 h (A431-CCK2R xenograft tumor / blood, 20 pmol, 20 pmol, read-out: tumor-to-blood ratio): 540 ± 103 | tissue to tissue ratio at 4 h (A431-CCK2R xenograft tumor / kidney, 20 pmol, 20 pmol, read-out: tumor-to-kidney ratio): 10 | tissue to tissue ratio at 4 h (A431-CCK2R xenograft tumor / liver, 20 pmol, 20 pmol, read-out: tumor-to-liver ratio): 83.3 ± 23 | tissue to tissue ratio at 4 h (A431-CCK2R xenograft tumor / stomach, 20 pmol, 20 pmol, read-out: tumor-to-stomach ratio): 5 | tissue uptake at 4 h [1]: 34.7 ± 9.4 %ID/g | tissue uptake at 12 h [1]: 23.4 ± 8.64 %ID/g | tissue uptake at 4 h (A431-CCK2R xenograft tumor, 150 pmol, 150 pmol, read-out: tumor uptake in A431-CCK2R xenografts): 16.7 ± 1.48 %ID/g | tissue uptake at 4 h [2]: 0.32 ± 0.14 %ID/g | tissue uptake at 12 h [2]: 0.11 ± 0.02 %ID/g | tissue uptake at 4 h [3]: 0.07 ± 0.02 %ID/g | tissue uptake at 12 h [3]: 0.01 %ID/g | tissue uptake at 4 h [4]: 0.09 ± 0.01 %ID/g | tissue uptake at 12 h [4]: 0.05 ± 0.01 %ID/g | tissue uptake at 4 h [5]: 1.14 ± 0.51 %ID/g | tissue uptake at 12 h [5]: 0.24 ± 0.02 %ID/g | tissue uptake at 4 h (intestine, 150 pmol, 150 pmol, read-out: uptake in intestine): 0.61 ± 0.13 %ID/g | tissue uptake at 4 h [6]: 3.97 ± 1.31 %ID/g | tissue uptake at 12 h [6]: 3.12 ± 1.05 %ID/g | tissue uptake at 4 h (kidney, 150 pmol, 150 pmol, read-out: uptake in kidney): 4.04 ± 0.82 %ID/g | tissue uptake at 4 h [7]: 0.42 ± 0.06 %ID/g | tissue uptake at 12 h [7]: 0.32 ± 0.09 %ID/g | tissue uptake at 4 h (liver, 150 pmol, 150 pmol, read-out: uptake in liver): 0.49 ± 0.12 %ID/g | tissue uptake at 4 h [8]: 0.14 ± 0.05 %ID/g | tissue uptake at 12 h [8]: 0.11 ± 0.07 %ID/g | tissue uptake at 4 h (lung, 150 pmol, 150 pmol, read-out: uptake in lung): 0.15 ± 0.07 %ID/g | tissue uptake at 4 h [9]: 0.06 ± 0.05 %ID/g | tissue uptake at 12 h [9]: 0.02 ± 0.01 %ID/g | tissue uptake at 4 h (muscle, 150 pmol, 150 pmol, read-out: uptake in muscle): 0.05 ± 0.03 %ID/g | tissue uptake at 4 h [10]: 2.09 ± 0.84 %ID/g | tissue uptake at 12 h [10]: 0.76 ± 0.13 %ID/g | tissue uptake at 4 h (pancreas, 150 pmol, 150 pmol, read-out: uptake in pancreas): 0.35 ± 0.06 %ID/g | tissue uptake at 4 h [11]: 0.18 ± 0.04 %ID/g | tissue uptake at 12 h [11]: 0.13 ± 0.03 %ID/g | tissue uptake at 4 h [12]: 7.37 ± 2.26 %ID/g | tissue uptake at 12 h [12]: 4.18 ± 0.72 %ID/g | tissue uptake at 4 h (stomach, 150 pmol, 150 pmol, read-out: uptake in stomach): 1.26 ± 0.5 %ID/g | tissue to tissue ratio at 12 h (tumor/blood, 20 pmol, 20 pmol, read-out: tumor-to-blood ratio): 2440 ± 1780 | tissue to tissue ratio at 4 h (tumor/blood, 150 pmol, 150 pmol, read-out: tumor-to-blood ratio): 294 ± 137 | tissue to tissue ratio at 12 h (tumor/kidney, 20 pmol, 20 pmol, read-out: tumor-to-kidney ratio): 8.14 ± 4.06 | tissue to tissue ratio at 4 h (tumor/kidney, 150 pmol, 150 pmol, read-out: tumor-to-kidney ratio): 4.25 ± 0.88 | tissue to tissue ratio at 12 h (tumor/liver, 20 pmol, 20 pmol, read-out: tumor-to-liver ratio): 76.8 ± 34.4 | tissue to tissue ratio at 4 h (tumor/liver, 150 pmol, 150 pmol, read-out: tumor-to-liver ratio): 35.9 ± 9.9 | tissue to tissue ratio at 12 h (tumor/stomach, 20 pmol, 20 pmol, read-out: tumor-to-stomach ratio): 5.54 ± 1.44 | tissue to tissue ratio at 4 h (tumor/stomach, 150 pmol, 150 pmol, read-out: tumor-to-stomach ratio): 14.9 ± 5.6
